Laboratory results published in the NIST ThermoML archive (doi:10.1021/je034102r).
Numbers after ± are expanded uncertainties.

Assay: molar heat capacity at constant pressure
Conditions: 101.33 kPa, Liquid, heat bridge-scanning calorimeter

Measured: molar heat capacity at constant pressure

CCCCn1cc[n+](C)c1.F[P-](F)(F)(F)(F)F [1-butyl-3-methylimidazolium hexafluorophosphate]
468.9 ± 9.4 J/K/mol: 397.18 K | 397.31 K
459.24 ± 9.1 J/K/mol: 384.61 K | 385.92 K
464.35 ± 9.4 J/K/mol: 391.27 K | 391.53 K | 392.3 K | 393.36 K | 393.49 K
458.67 ± 9.1 J/K/mol: 383.19 K | 383.32 K | 384.48 K
462.08 ± 9.4 J/K/mol: 389.96 K | 390.09 K
473.45 ± 9.4 J/K/mol: 406.33 K | 406.85 K | 407.53 K | 407.66 K | 408.19 K
458.95 ± 9.1 J/K/mol: 384.74 K
472.6 ± 9.4 J/K/mol: 400.73 K | 401.41 K | 404.04 K
456.97 ± 9.1 J/K/mol: 380.71 K | 381.38 K | 381.89 K
459.52 ± 9.1 J/K/mol: 385.41 K | 385.79 K | 386.05 K
465.49 ± 9.4 J/K/mol: 394.3 K | 394.42 K
464.07 ± 9.4 J/K/mol: 390.73 K | 391.79 K | 391.92 K | 392.71 K | 392.84 K | 392.97 K | 393.11 K | 393.24 K
466.34 ± 9.4 J/K/mol: 394.68 K
467.2 ± 9.4 J/K/mol: 395.07 K | 395.86 K
464.92 ± 9.4 J/K/mol: 392.43 K
456.68 ± 9.1 J/K/mol: 381.51 K | 381.63 K | 381.76 K
463.79 ± 9.4 J/K/mol: 390.6 K | 392.05 K | 392.17 K
461.51 ± 9.1 J/K/mol: 388.67 K | 388.79 K | 388.92 K | 389.05 K | 389.43 K
457.82 ± 9.1 J/K/mol: 382.14 K | 382.81 K | 383.57 K | 383.7 K | 384.23 K | 384.99 K
469.47 ± 9.4 J/K/mol: 396.63 K | 397.69 K | 398.08 K | 398.21 K | 398.62 K
470.04 ± 9.4 J/K/mol: 398.75 K
460.94 ± 9.1 J/K/mol: 388.41 K
462.93 ± 9.4 J/K/mol: 390.35 K | 390.47 K
458.1 ± 9.1 J/K/mol: 382.94 K | 384.1 K | 384.36 K | 385.12 K
457.25 ± 9.1 J/K/mol: 380.98 K
459.81 ± 9.1 J/K/mol: 385.66 K | 386.43 K | 387.36 K
472.31 ± 9.4 J/K/mol: 401.54 K | 402.06 K | 403.78 K | 403.91 K | 404.32 K | 404.45 K | 404.58 K
471.46 ± 9.4 J/K/mol: 402.32 K | 402.45 K | 402.87 K
458.39 ± 9.1 J/K/mol: 382.68 K | 383.06 K | 383.45 K | 384.86 K
469.19 ± 9.4 J/K/mol: 396.92 K | 397.44 K | 397.56 K | 397.82 K | 397.95 K | 398.49 K
465.21 ± 9.4 J/K/mol: 393.75 K | 394.04 K | 394.17 K
460.09 ± 9.1 J/K/mol: 385.54 K | 386.18 K | 386.3 K | 386.56 K | 387.1 K | 387.23 K | 387.49 K | 387.87 K | 388 K
461.8 ± 9.4 J/K/mol: 389.18 K | 389.3 K | 389.56 K | 389.84 K
468.05 ± 9.4 J/K/mol: 395.99 K
474.02 ± 9.4 J/K/mol: 405.93 K | 406.06 K | 407.27 K
462.36 ± 9.4 J/K/mol: 390.22 K
472.03 ± 9.4 J/K/mol: 399.53 K | 400.86 K | 401.8 K | 401.93 K | 402.19 K | 403.13 K | 403.26 K | 403.39 K | 403.52 K | 403.65 K | 405.38 K
468.62 ± 9.4 J/K/mol: 396.5 K | 397.05 K
465.77 ± 9.4 J/K/mol: 394.55 K
460.38 ± 9.1 J/K/mol: 386.69 K | 386.97 K | 387.61 K | 387.74 K
472.88 ± 9.4 J/K/mol: 405.24 K | 405.67 K | 406.46 K | 406.59 K | 408.05 K
468.33 ± 9.4 J/K/mol: 396.12 K | 396.24 K | 396.37 K
467.48 ± 9.4 J/K/mol: 394.81 K | 394.94 K
466.91 ± 9.4 J/K/mol: 395.6 K | 395.73 K
463.5 ± 9.4 J/K/mol: 390.86 K | 391.15 K
470.32 ± 9.4 J/K/mol: 398.88 K
466.63 ± 9.4 J/K/mol: 395.2 K | 395.32 K
470.89 ± 9.4 J/K/mol: 399.28 K | 399.95 K | 400.08 K
473.73 ± 9.4 J/K/mol: 404.84 K | 404.98 K | 405.8 K | 406.2 K | 406.98 K | 407.4 K
464.64 ± 9.4 J/K/mol: 391.4 K | 391.66 K | 393.62 K
471.74 ± 9.4 J/K/mol: 400.47 K | 400.6 K | 400.99 K | 401.12 K | 401.67 K | 402.74 K | 403 K
461.23 ± 9.1 J/K/mol: 388.28 K | 388.54 K
473.16 ± 9.4 J/K/mol: 404.71 K | 405.11 K | 406.72 K | 407.79 K | 407.92 K
470.61 ± 9.4 J/K/mol: 399.01 K | 399.15 K | 400.21 K
471.17 ± 9.4 J/K/mol: 399.41 K | 399.82 K | 400.34 K
457.53 ± 9.1 J/K/mol: 380.84 K | 381.25 K | 382.01 K | 382.27 K | 382.56 K | 383.83 K
